Results reported in patent US12358948B2, “Neurotensinergic agonists and methods of using same preventing or treating pain” (priority 2019, dated 2025).
*1 amine or outer side, *2 acyl side, *3 side chain or, on linkers, in order; H or OH if unused. Where a SMILES comes first, the peptide text is derived from it. Bridges are numbered along the chain shown (N, C = ends). [ ]: non-standard residue; d: D form. ξ: configuration not given here. ξαMeNle(6-ylidene) = CC(CCCC=[*:3])(N[*:1])C(=O)[*:2]; Phe(4-CF3) = N[C@@H](Cc1ccc(C(F)(F)F)cc1)C(=O)O; Phe(4-tBu) = CC(C)(C)c1ccc(C[C@H](N)C(=O)O)cc1; Phe(3-Br) = N[C@@H](Cc1cccc(Br)c1)C(=O)O; Phe(3-Cl) = N[C@@H](Cc1cccc(Cl)c1)C(=O)O; Phe(4-Br) = N[C@@H](Cc1ccc(Br)cc1)C(=O)O; Phe(4-CN) = N#Cc1ccc(C[C@H](N)C(=O)O)cc1; Phe(4-Cl) = N[C@@H](Cc1ccc(Cl)cc1)C(=O)O; Phe(3-I) = N[C@@H](Cc1cccc(I)c1)C(=O)O; 2Nal = N[C@@H](Cc1ccc2ccccc2c1)C(=O)O; hTyr = N[C@@H](CCc1ccc(O)cc1)C(=O)O; Hpg = N[C@H](C(=O)O)c1ccc(O)cc1; AllylGly = C=CC[C@H](N)C(=O)O; Orn = NCCC[C@H](N)C(=O)O; Dab = NCC[C@H](N)C(=O)O; Dap = NC[C@H](N)C(=O)O

Key:
hNTS2 receptor = biological target: T1, hNTS2 receptor (Homo sapiens, UniProt O95665); assay: Competitive radioligand binding assay on the hNTS2 receptor; conditions: for IC50: displacement of 125I-[Tyr3]-NT, membranes of 1321N1 cells expressing hNTS2, read-out: IC50 NTS2 (converted); for Selectivity: ratio IC50 for NTS1 : IC50 for NTS2
T1 construct: membranes prepared from them
T1 sequence (O95665 whole entry): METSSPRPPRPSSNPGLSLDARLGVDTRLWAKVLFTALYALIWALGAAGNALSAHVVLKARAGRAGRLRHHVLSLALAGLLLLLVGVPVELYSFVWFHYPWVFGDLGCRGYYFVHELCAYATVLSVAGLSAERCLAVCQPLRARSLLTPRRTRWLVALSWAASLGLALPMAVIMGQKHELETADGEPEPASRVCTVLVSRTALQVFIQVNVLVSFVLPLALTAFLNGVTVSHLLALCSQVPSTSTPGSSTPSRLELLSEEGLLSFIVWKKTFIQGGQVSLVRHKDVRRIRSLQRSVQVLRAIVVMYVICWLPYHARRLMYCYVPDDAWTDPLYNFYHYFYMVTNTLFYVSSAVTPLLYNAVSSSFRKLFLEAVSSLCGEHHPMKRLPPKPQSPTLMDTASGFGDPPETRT
Method in brief: (§1)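 Membranes from CHO-K1 cells expressing hNTS1 (15 µg, […] ¹²⁵I-[Tyr³]-NT) or 1321N1 cells expressing hNTS2 (50 µg, […] radioligand) were incubated with analogues at 10⁻¹¹–10⁻⁴ M for 60 min at 25 °C in Tris-HCl pH 7.5/0.2% BSA. Filtration and γ-counting followed; nonspecific binding was defined with 10⁻⁵ M NT(8-13), and IC50 was obtained by one-site fit.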

hNTS1 receptor = biological target: T2, hNTS1 receptor (Homo sapiens, UniProt P30989); assay: Competitive radioligand binding assay on the hNTS1 receptor; conditions: displacement of 125I-[Tyr3]-NT, membranes of CHO-K1 cells expressing hNTS1; read-out: IC50 NTS1
T2 construct: membranes prepared from them
T2 sequence (P30989 whole entry): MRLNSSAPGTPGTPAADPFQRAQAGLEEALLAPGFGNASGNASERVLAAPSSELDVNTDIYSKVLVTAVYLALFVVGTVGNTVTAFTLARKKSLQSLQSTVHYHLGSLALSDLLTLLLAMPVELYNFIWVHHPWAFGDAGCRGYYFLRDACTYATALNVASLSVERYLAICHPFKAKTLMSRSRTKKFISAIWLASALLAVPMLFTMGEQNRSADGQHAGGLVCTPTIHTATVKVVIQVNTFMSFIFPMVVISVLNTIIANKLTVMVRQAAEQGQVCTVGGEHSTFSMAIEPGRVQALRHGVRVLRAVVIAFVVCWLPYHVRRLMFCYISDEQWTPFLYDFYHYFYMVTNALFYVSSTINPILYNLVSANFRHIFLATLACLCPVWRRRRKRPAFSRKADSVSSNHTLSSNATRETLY
Method in brief: as §1

| SMILES | IC50 (hNTS2 receptor) [nM] | Selectivity (hNTS2 receptor) | IC50 (hNTS1 receptor) [µM] |
| --- | --- | --- | --- |
| CC(C)C[C@H](NC(=O)[C@H](Cc1ccc(O)cc1)NC(=O)[C@@H]1CCC(=O)NC[C@H](N)C(=O)N[C@@H](CCCCN)C(=O)N[C@@H](CCCCN)C(=O)N1)C(=O)O [compound 98, c[DapKKE]YL] (H-[Dap]KKEYL-OH; lactam 1-4) | 8180 | >12.2 | > 100 |
| CC(C)C[C@H](NC(=O)[C@H](Cc1ccc(O)cc1)NC(=O)[C@@H]1CCC(=O)NCC[C@H](N)C(=O)N[C@@H](CCCCN)C(=O)N[C@@H](CCCCN)C(=O)N1)C(=O)O [compound 99, c[DabKKE]YL] (H-[Dab]KKEYL-OH; lactam 1-4) | 11000 | >9 | > 100 |
| CC(C)C[C@H](NC(=O)[C@H](Cc1ccc(O)cc1)NC(=O)[C@@H]1CCC(=O)NCCC[C@H](N)C(=O)N[C@@H](CCCCN)C(=O)N[C@@H](CCCCN)C(=O)N1)C(=O)O [compound 100, c[OrnKKE]YL] (H-[Orn]KKEYL-OH; lactam 1-4) | 4500 | >22 | > 100 |
| CC(C)C[C@H](NC(=O)[C@H](Cc1ccc(C(F)(F)F)cc1)NC(=O)[C@@H]1CC=CC[C@H](N)C(=O)N[C@@H](CCCCN)C(=O)N[C@@H](CCCCN)C(=O)N1)C(=O)O [compound 111, c[G(All)KKG(All)]F(4-CF3)L] (H-[AllylGly]KK[AllylGly][Phe(4-CF3)]L-OH; staple 1-4) | 47.9 | >2087 | > 100 |
| CC(C)C[C@H](NC(=O)[C@H](Cc1cccc(Cl)c1)NC(=O)[C@@H]1CC=CC[C@H](N)C(=O)N[C@@H](CCCCN)C(=O)N[C@@H](CCCCN)C(=O)N1)C(=O)O [compound 113, c[G(All)KKG(All)]F(3-chloro)L] (H-[AllylGly]KK[AllylGly][Phe(3-Cl)]L-OH; staple 1-4) | 48 | >2084 | > 100 |
| CC(C)C[C@H](NC(=O)[C@H](Cc1ccc(Cl)cc1)NC(=O)[C@@H]1CC=CC[C@H](N)C(=O)N[C@@H](CCCCN)C(=O)N[C@@H](CCCCN)C(=O)N1)C(=O)O [compound 114, c[G(All)KKG(All)]F(4-chloro)L] (H-[AllylGly]KK[AllylGly][Phe(4-Cl)]L-OH; staple 1-4) | 40.6 | >2466 | > 100 |
| CC(C)C[C@H](NC(=O)[C@H](Cc1cccc(Br)c1)NC(=O)[C@@H]1CC=CC[C@H](N)C(=O)N[C@@H](CCCCN)C(=O)N[C@@H](CCCCN)C(=O)N1)C(=O)O [compound 115, c[G(All)KKG(All)]F(3-bromo)L] (H-[AllylGly]KK[AllylGly][Phe(3-Br)]L-OH; staple 1-4) | 28.4 | >3523 | > 100 |
| CC(C)C[C@H](NC(=O)[C@H](Cc1cccc(I)c1)NC(=O)[C@@H]1CC=CC[C@H](N)C(=O)N[C@@H](CCCCN)C(=O)N[C@@H](CCCCN)C(=O)N1)C(=O)O [compound 117, c[G(All)KKG(All)]F(3-iodo)L] (H-[AllylGly]KK[AllylGly][Phe(3-I)]L-OH; staple 1-4) | 32.3 | >3097 | > 100 |
| CC(C)C[C@H](NC(=O)[C@H](CCc1ccc(O)cc1)NC(=O)[C@@H]1CC=CC[C@H](N)C(=O)N[C@@H](CCCCN)C(=O)N[C@@H](CCCCN)C(=O)N1)C(=O)O [compound 126, c[G(All)KKG(All)]homoYL] (H-[AllylGly]KK[AllylGly][hTyr]L-OH; staple 1-4) | 81.7 | 1224 | > 100 |
| NCCCC[C@@H]1NC(=O)CCC=CC[C@@H](C(=O)N[C@@H](Cc2ccc(O)cc2)C(=O)N[C@@H](CC2CCCC2)C(=O)O)NC(=O)[C@H](CCCCN)NC1=O [compound 129, c[pK(pentenoyl)KG(All)]Y A(cyclopentyl)] | 13.9 | 7194 | > 100 |
| CC(C)C[C@H](NC(=O)[C@H](Cc1ccc(Br)cc1)NC(=O)C1(C)CCCC=CC[C@H](N)C(=O)N[C@@H](CCCCN)C(=O)N[C@@H](CCCCN)C(=O)N1)C(=O)O (stereo partly drawn) [compound 130, c[G(All)KKG(alpha-Me-(4-pentenyl))]F(4-bromo)L] (H-[AllylGly]KK[ξαMeNle(6-ylidene)][Phe(4-Br)]L-OH; staple 1-4) | 10.2 | 9843 | > 100 |
| NCCCC[C@@H]1NC(=O)CCC=CC[C@@H](C(=O)N[C@@H](Cc2ccc(Br)cc2)C(=O)N[C@@H](CC2CCCC2)C(=O)O)NC(=O)[C@H](CCCCN)NC1=O [compound 134, cK([Pentenoyl)KG(All)]F(4-bromo)A (cyclopentyl)] | 17.7 | 5650 | > 100 |

Results, then the molecule that gave them:

| IC50 (hNTS2 receptor) [nM] | Selectivity (hNTS2 receptor) | IC50 (hNTS1 receptor) [µM] | SMILES |
| --- | --- | --- | --- |
| 8810 | >11.4 | > 100 | CC(C)C[C@H](NC(=O)[C@H](Cc1ccc(O)cc1)NC(=O)[C@@H]1CC(=O)NCC[C@H](N)C(=O)N[C@@H](CCCCN)C(=O)N[C@@H](CCCCN)C(=O)N1)C(=O)O [compound 95, c[DabKKD]YL] (H-[Dab]KKDYL-OH; lactam 1-4) |
| 1930 | >51.8 | > 100 | CC(C)C[C@H](NC(=O)[C@H](Cc1ccc(O)cc1)NC(=O)[C@@H]1CC(=O)NCCC[C@H](N)C(=O)N[C@@H](CCCCN)C(=O)N[C@@H](CCCCN)C(=O)N1)C(=O)O [compound 96, c[OrnKKD]YL] (H-[Orn]KKDYL-OH; lactam 1-4) |
| 1020 | >98.4 | > 100 | CC(C)C[C@H](NC(=O)[C@H](Cc1ccc(O)cc1)NC(=O)[C@@H]1CC(=O)NCCCC[C@H](N)C(=O)N[C@@H](CCCCN)C(=O)N[C@@H](CCCCN)C(=O)N1)C(=O)O [compound 97, c[KKKD]YL] (H-KKKDYL-OH; lactam 1-4) |
| 889 | >111 | > 100 | CC(C)C[C@H](NC(=O)[C@H](Cc1ccc(O)cc1)NC(=O)[C@@H]1CCC(=O)NCCCC[C@H](N)C(=O)N[C@@H](CCCCN)C(=O)N[C@@H](CCCCN)C(=O)N1)C(=O)O [compound 101, c[KKKE]YL] (H-KKKEYL-OH; lactam 1-4) |
| 9100 | >11.0 | > 100 | CC(C)C[C@H](NC(=O)[C@H](Cc1ccc(O)cc1)NC(=O)[C@@H]1CNC(=O)C[C@H](N)C(=O)N[C@@H](CCCCN)C(=O)N[C@@H](CCCCN)C(=O)N1)C(=O)O [compound 103, c[DKKDap]YL] (H-DKK[Dap]YL-OH; lactam 1-4) |
| 16500 | >6.1 | > 100 | CC(C)C[C@H](NC(=O)[C@H](Cc1ccc(O)cc1)NC(=O)[C@@H]1CCNC(=O)CC[C@H](N)C(=O)N[C@@H](CCCCN)C(=O)N[C@@H](CCCCN)C(=O)N1)C(=O)O [compound 104, c[EKKDab]YL] (H-EKK[Dab]YL-OH; lactam 1-4) |
| 1450 | >67.0 | > 100 | CC(C)C[C@H](NC(=O)[C@H](Cc1ccc(O)cc1)NC(=O)[C@@H]1CCNC(=O)C[C@H](N)C(=O)N[C@@H](CCCCN)C(=O)N[C@@H](CCCCN)C(=O)N1)C(=O)O [compound 105, c[DKKDab]YL] (H-DKK[Dab]YL-OH; lactam 1-4) |
| 40.2 | >2488 | > 100 | CC(C)C[C@H](NC(=O)[C@H](Cc1ccc(C(C)(C)C)cc1)NC(=O)[C@@H]1CC=CC[C@H](N)C(=O)N[C@@H](CCCCN)C(=O)N[C@@H](CCCCN)C(=O)N1)C(=O)O [compound 110, c[G(All)KKG(All)]F(4-tbu)L] (H-[AllylGly]KK[AllylGly][Phe(4-tBu)]L-OH; staple 1-4) |
| 83.6 | >1196 | > 100 | CC(C)C[C@H](NC(=O)[C@H](Cc1ccc2ccccc2c1)NC(=O)[C@@H]1CC=CC[C@H](N)C(=O)N[C@@H](CCCCN)C(=O)N[C@@H](CCCCN)C(=O)N1)C(=O)O [compound 112, c[G(All)KKG(All)]A(naphtyl)L] (H-[AllylGly]KK[AllylGly][2Nal]L-OH; staple 1-4) |
| 57.8 | >1729 | > 100 | CC(C)C[C@H](NC(=O)[C@H](Cc1ccc(C#N)cc1)NC(=O)[C@@H]1CC=CC[C@H](N)C(=O)N[C@@H](CCCCN)C(=O)N[C@@H](CCCCN)C(=O)N1)C(=O)O [compound 118, c[G(All)KKG(All)]F(4-cyano)L] (H-[AllylGly]KK[AllylGly][Phe(4-CN)]L-OH; staple 1-4) |
| 1800 | 56 | > 100 | CC(C)C[C@H](NC(=O)[C@@H](NC(=O)[C@@H]1CC=CC[C@H](N)C(=O)N[C@@H](CCCCN)C(=O)N[C@@H](CCCCN)C(=O)N1)c1ccc(O)cc1)C(=O)O [compound 125] (H-[AllylGly]KK[AllylGly][Hpg]L-OH; staple 1-4) |
| 27.4 | 3650 | > 100 | CC(C)C[C@H](NC(=O)[C@H](Cc1ccc(Br)cc1)NC(=O)[C@@H]1CC=CCCC(=O)N[C@@H](CCCCN)C(=O)N[C@@H](CCCCN)C(=O)N1)C(=O)O [compound 131, c[K(pentenoyl)KG(All)](4-bromo)L] |
| 136 | 733 | > 100 | CC(C)C[C@H](NC(=O)[C@H](Cc1ccc(O)cc1)NC(=O)C1(C)CCCC=CCCC(=O)N[C@@H](CCCCN)C(=O)N[C@@H](CCCCN)C(=O)N1)C(=O)O (stereo partly drawn) [compound 132, c[K(Pentenoyl)KG(alpha-Me-(4-pentenyl))]YL] |
| 45.9 | 2179 | > 100 | CC1(C(=O)N[C@@H](Cc2ccc(O)cc2)C(=O)N[C@@H](CC2CCCC2)C(=O)O)CCCC=CCCC(=O)N[C@@H](CCCCN)C(=O)N[C@@H](CCCCN)C(=O)N1 (stereo partly drawn) [compound 135, c[K(Pentenoyl)KG(alpha-Me-(4-pentenyl))]YA(cyclopentyl)] |
